# Results as given in US20230151003A1, “COMPOUNDS AND METHODS OF USE” (Exelixis, Inc., priority 2020, published 2023).
# Key:
# Format in all cases: cell-based
# [1] = target: T1, Mer (Homo sapiens, UniProt Q12866); test: Mer autophosphorylation ELISA in transient transfected 293A cells; conditions: Table 3 Cellular Activities; MERTK-transfected 293A cells, phospho-Mer ELISA
# T1 construct: host or cells: 293A cells (Thermo Fisher #R70507)
# T1 sequence (Q12866 21-999): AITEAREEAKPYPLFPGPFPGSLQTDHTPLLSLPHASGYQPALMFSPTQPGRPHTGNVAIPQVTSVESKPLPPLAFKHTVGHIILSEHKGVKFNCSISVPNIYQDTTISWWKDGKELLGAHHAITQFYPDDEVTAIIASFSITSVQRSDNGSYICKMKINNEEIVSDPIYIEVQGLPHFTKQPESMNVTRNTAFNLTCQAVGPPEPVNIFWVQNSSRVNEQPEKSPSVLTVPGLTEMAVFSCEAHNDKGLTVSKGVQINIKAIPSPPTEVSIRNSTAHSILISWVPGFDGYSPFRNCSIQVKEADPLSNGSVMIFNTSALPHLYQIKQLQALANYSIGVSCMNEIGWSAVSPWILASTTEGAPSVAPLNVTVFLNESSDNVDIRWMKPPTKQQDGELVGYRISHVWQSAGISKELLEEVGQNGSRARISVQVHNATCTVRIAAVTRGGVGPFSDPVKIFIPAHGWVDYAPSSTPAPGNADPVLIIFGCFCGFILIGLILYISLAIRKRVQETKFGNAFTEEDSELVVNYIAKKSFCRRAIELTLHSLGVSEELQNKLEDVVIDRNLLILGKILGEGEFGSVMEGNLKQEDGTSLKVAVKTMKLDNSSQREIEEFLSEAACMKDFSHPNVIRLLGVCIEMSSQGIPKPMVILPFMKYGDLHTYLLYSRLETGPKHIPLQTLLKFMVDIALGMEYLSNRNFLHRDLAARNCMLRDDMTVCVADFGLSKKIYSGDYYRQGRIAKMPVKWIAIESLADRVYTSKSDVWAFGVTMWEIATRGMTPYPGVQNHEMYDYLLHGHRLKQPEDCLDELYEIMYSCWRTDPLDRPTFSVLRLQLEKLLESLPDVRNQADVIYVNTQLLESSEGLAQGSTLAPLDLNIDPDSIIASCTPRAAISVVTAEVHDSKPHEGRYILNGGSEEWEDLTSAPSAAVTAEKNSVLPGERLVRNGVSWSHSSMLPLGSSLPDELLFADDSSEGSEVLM
# Description: 293A cells (Thermo Fisher #R70507) were seeded at 1.5×10^6 cells/well onto 100 mm dish (Greiner #664169), in DMEM (Thermo Fisher #11995-040) containing 10% FBS (Thermo Fisher #26140-079), 1% MEM NEAA (Thermo Fisher #11140-050), 1% GlutaMax (Thermo Fisher #35050-061), and 1% Penicillin Streptomycin (Thermo Fisher #15140-122). 293A cells were incubated at 37° C., 5% CO2 for 24 h and then transfected with 6μg MERTK DNA (Genecopoeia #EX-Z8208-M02) using TransIT LT1 transfection reagent (Mirus-Bio #MIR2305). After 24 h incubation, the transfected 293A cells were seeded at 1×10^5 cells/well onto 96-well plates (Corning #3904) in DMEM growth medium overnight. Test compounds were serially diluted to produce an 8-point dose curve in fresh serum-free medium to a final concentration of 0.3% DMSO (vehicle) and added to the cells and incubated for 1 h. Cells were then immediately lysed with 150 μL of cold 1× lysis buffer […], 137 mM sodium chloride, 2 mM EDTA, 10% glycerol, 1% NP-40 alternative, 1 mM activated sodium orthovanadate, 1 mM PefaBloc SC (Sigma-Aldrich #11429868001), protease/phosphatase inhibitor tablet (Thermo Fisher #A32959)]. Lysates were clarified by centrifugation and 50 μL/well added into the human phospho-Mer DuoSet IC ELISA (R&D Systems #DYC2579-2). Assay was performed according to manufacturer's instructions and sample phospho-Mer concentrations were extrapolated using human phospho-Mer control (R&D Systems #841793) as a standard. Positive control wells (100% activity) contained DMSO-treated cell lysates. Negative control wells (0% activity) contained reference inhibitor-treated cell lysates. IC50 values were calculated by nonlinear regression analysis using a 4-parameter logistic curve fit in ActivityBase XE (IDBS).
# [2] = target: KDR (Homo sapiens, UniProt P35968); test: KDR autophosphorylation ELISA in HUVEC cells; set-up: endogenous in cells; host or cells: HUVEC (Lonza #C2519A); conditions: Table 3 Cellular Activities, VEGF165-stimulated, phospho-KDR ELISA
# Description: Human umbilical vein endothelial cells or HUVEC (Lonza #C2519A) were seeded at 2×10^4 cells/well onto 96-well plates (Corning #3904), in EGM-2 growth medium (Lonza #CC-3162) containing 1% Penicillin Streptomycin (Thermo Fisher #15140-122). HUVEC cells were incubated at 37° C., 5% CO2 for 24 h and then starved for 24 h in serum-free EBM-2 basal medium (Lonza #CC-3156) containing 1% Penicillin Streptomycin. Test compounds were serially diluted to produce an 8-point dose curve in fresh serum-free medium to a final concentration of 0.3% DMSO (vehicle) and added to the cells and incubated for 1 h. Cells were then stimulated with 100 ng/mL recombinant human VEGF165 (R&D Systems #293-VE-500) for 5 min, washed with cold PBS, and immediately lysed with 130 μL of cold 1× lysis buffer [20 mM Tris, 137 mM sodium chloride, 2 mM EDTA, 10% glycerol, 1% NP-40 alternative, 1 mM activated sodium orthovanadate, 1 mM PefaBloc SC (Sigma-Aldrich #11429868001), protease/phosphatase inhibitor tablet (Thermo Fisher #A32959)]. Lysates were collected and 100 μL/well added into the human phospho-KDR DuoSet IC ELISA (R&D Systems #DYC1766-2). Assay was performed according to manufacturer's instructions and sample phospho-KDR concentrations were extrapolated using human phospho-KDR control (R&D Systems #841421) as a standard. Positive control wells (100% activity) contained VEGF165-stimulated, DMSO-treated cell lysates. Negative control wells (0% activity) contained non-stimulated cell lysates. IC50 values were calculated by nonlinear regression analysis using a 4-parameter logistic curve fit in ActivityBase XE (IDBS).
# [3] = target: Met (Homo sapiens, UniProt P08581); test: Met autophosphorylation ELISA in PC-3 cells; set-up: endogenous in cells; host or cells: PC-3 prostate cancer cells (ATCC #CRL-1435); conditions: Table 3 Cellular Activities, HGF-stimulated, phospho-Met ELISA, read-out: c-Met IC50
# Description: PC-3 prostate cancer cells (ATCC #CRL-1435) were seeded at 4×10^4 cells/well onto 24-well plates (Greiner #662165), in DMEM (Thermo Fisher #11995-040) containing 10% FBS (Thermo Fisher #26140-079), 1% MEM NEAA (Thermo Fisher #11140-050), 1% GlutaMax (Thermo Fisher #35050-061), and 1% Penicillin Streptomycin (Thermo Fisher #15140-122). PC-3 cells were incubated at 37° C., 5% CO2 for 24 h and then starved for 3 h in serum-free medium. Test compounds were serially diluted to produce an 8-point dose curve in fresh serum-free medium to a final concentration of 0.3% DMSO (vehicle) and added to the cells and incubated for 1 h. Cells were then stimulated with 100 ng/mL recombinant human HGF (R&D Systems #294-HG-250) for 10 min, washed with cold PBS, and immediately lysed with 130 μL of cold 1× lysis buffer [20 mM Tris, 137 mM sodium chloride, 2 mM EDTA, 10% glycerol, 1% NP-40 alternative, 1 mM activated sodium orthovanadate, 1 mM PefaBloc SC (Sigma-Aldrich #11429868001), protease/phosphatase inhibitor tablet (Thermo Fisher #A32959)]. Lysates were clarified by centrifugation and 100 μL/well added into the PathScan phospho-Met (panTyr) Sandwich ELISA (Cell Signaling Technology #7333). Assay was performed according to manufacturer's instructions. Positive control wells (100% activity) contained HGF-stimulated, DMSO-treated cell lysates. Negative control wells (0% activity) contained HGF-stimulated, reference inhibitor-treated cell lysates. IC50 values were calculated by nonlinear regression analysis using a 4-parameter logistic curve fit in ActivityBase XE (IDBS).
# Sequence of Met (P08581 25-1390): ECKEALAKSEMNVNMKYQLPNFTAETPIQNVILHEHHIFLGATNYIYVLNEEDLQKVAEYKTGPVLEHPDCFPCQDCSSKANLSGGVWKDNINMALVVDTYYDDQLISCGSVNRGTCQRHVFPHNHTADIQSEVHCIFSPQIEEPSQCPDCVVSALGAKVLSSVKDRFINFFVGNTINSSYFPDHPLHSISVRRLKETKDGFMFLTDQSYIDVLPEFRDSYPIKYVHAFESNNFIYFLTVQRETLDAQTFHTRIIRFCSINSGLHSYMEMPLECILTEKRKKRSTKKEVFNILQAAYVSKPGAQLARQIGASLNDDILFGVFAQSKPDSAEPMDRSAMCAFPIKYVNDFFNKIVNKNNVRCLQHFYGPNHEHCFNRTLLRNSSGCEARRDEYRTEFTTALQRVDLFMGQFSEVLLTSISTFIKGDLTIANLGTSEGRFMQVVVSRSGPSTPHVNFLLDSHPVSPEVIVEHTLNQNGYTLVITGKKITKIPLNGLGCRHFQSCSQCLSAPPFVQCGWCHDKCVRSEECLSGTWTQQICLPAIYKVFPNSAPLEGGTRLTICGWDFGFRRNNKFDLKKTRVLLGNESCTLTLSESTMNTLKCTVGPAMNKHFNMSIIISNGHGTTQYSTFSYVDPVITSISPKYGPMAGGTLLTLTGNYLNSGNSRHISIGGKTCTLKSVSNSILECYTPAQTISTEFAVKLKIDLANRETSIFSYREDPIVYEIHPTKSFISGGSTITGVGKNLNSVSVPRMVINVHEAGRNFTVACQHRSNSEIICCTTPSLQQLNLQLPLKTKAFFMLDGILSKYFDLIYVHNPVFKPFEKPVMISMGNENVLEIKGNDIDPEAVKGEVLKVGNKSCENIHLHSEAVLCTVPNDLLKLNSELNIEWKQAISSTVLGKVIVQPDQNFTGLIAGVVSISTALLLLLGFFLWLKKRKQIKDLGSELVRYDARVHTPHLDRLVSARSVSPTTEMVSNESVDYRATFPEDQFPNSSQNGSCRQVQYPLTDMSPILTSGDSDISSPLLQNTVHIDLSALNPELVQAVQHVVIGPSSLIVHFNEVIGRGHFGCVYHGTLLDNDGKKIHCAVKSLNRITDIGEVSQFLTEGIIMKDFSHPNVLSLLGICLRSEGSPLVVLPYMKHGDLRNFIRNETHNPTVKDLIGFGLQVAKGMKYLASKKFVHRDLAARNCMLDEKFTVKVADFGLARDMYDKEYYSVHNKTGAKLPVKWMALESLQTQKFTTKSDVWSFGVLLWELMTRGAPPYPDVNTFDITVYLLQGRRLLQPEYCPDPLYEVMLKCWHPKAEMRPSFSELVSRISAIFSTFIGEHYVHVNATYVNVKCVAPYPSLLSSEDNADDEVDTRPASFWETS
# Sequence of KDR (P35968 20-1356): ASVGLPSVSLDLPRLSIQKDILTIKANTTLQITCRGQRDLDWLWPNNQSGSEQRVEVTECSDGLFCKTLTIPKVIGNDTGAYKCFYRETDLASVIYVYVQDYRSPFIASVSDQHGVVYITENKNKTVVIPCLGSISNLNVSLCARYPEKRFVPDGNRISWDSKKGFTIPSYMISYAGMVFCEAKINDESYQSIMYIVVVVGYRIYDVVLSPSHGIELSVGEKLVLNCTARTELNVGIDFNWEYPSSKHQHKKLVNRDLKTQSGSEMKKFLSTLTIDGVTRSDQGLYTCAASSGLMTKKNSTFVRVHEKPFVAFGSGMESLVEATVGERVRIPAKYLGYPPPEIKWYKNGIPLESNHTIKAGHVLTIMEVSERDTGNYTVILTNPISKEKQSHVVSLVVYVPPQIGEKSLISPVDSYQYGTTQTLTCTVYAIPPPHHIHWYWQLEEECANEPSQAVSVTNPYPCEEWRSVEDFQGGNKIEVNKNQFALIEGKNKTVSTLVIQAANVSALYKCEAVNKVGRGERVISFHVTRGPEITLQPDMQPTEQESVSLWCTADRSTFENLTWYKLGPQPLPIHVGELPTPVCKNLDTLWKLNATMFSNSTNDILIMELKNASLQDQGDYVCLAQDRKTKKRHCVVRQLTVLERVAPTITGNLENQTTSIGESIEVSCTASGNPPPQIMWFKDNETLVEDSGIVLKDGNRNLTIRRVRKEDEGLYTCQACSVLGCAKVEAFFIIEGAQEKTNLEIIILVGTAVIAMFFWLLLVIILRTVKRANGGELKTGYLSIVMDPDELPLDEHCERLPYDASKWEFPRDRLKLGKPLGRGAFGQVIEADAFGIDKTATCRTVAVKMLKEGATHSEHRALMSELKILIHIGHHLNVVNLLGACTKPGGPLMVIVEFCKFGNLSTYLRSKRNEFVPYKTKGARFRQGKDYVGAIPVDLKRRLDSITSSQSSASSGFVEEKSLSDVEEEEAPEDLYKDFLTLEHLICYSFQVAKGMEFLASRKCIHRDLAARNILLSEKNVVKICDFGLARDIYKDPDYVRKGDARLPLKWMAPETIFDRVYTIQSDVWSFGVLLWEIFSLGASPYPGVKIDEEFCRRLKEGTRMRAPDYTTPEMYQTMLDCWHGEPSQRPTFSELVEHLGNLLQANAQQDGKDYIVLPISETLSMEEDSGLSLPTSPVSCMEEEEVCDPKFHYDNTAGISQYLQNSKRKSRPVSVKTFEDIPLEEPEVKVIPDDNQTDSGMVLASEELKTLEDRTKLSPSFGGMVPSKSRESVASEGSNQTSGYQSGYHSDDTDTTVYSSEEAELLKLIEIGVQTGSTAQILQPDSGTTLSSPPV
SMILES,IC50 [1],IC50 [2],IC50 [3]
"CCOCCOCCOc1cc(-n2c(C)ccc(C(=O)Nc3ccc(Oc4ccnc5cc(OC)c(OC)nc45)c(F)c3)c2=O)ccn1 [Compound 224, N-[4-[(6,7-Dimethoxy-1,5-naphthyridin-4-yl)oxy]-3-fluorophenyl]-1-[2-[2-(2-ethoxyethoxy)ethoxy]pyridin-4-yl]-6-methyl-2-oxopyridine-3-carboxamide]",≤ 100 nM,≤ 100 nM,≤ 100 nM
"CCOc1ccc(-n2c(C)ccc(C(=O)Nc3ccc(Oc4ccnc5cc(OC)cnc45)c(F)c3)c2=O)nc1 [Compound 213, 1-(5-Ethoxypyridin-2-yl)-N-[3-fluoro-4-[(7-methoxy-1,5-naphthyridin-4-yl)oxy]phenyl]-6-methyl-2-oxopyridine-3-carboxamide]",,,300 to 1000 nM
"COc1cc2nccc(Oc3ccc(NC(=O)c4ccc(C)n(-c5ccnc(OC(C)C)c5)c4=O)cc3F)c2nc1OC [Compound 225, N-[4-[(6,7-Dimethoxy-1,5-naphthyridin-4-yl)oxy]-3-fluorophenyl]-6-methyl-2-oxo-1-(2-propan-2-yloxypyridin-4-yl)pyridine-3-carboxamide]",≤ 100 nM,300 to 1000 nM,≤ 100 nM
"COc1cc2nccc(Oc3ccc(NC(=O)c4c(C)n(CC(F)F)cc(-c5ccco5)c4=O)cc3F)c2nc1OC [Compound 275, 1-(2,2-Difluoroethyl)-N-[4-[(6,7-dimethoxy-1,5-naphthyridin-4-yl)oxy]-3-fluorophenyl]-5-(furan-2-yl)-2-methyl-4-oxopyridine-3-carboxamide]",≤ 100 nM,300 to 1000 nM,≤ 100 nM
"COc1cc2nccc(Oc3ccc(NC(=O)c4c5n(c(C)c(-c6ccco6)c4=O)CCOC5)cc3F)c2nc1OC [Compound 314, N-[4-[(6,7-Dimethoxy-1,5-naphthyridin-4-yl)oxy]-3-fluorophenyl]-7-(furan-2-yl)-6-methyl-8-oxo-3,4-dihydro-1H-pyrido[2,1-c][1,4]oxazine-9-carboxamide]",≤ 100 nM,,≤ 100 nM
"CCOc1ccc(-n2c(C)ccc(C(=O)Nc3ccc(Oc4ccnc5cc(OC)c(OC)nc45)c(F)c3)c2=O)nc1 [Compound 212, N-[4-[(6,7-Dimethoxy-1,5-naphthyridin-4-yl)oxy]-3-fluorophenyl]-1-(5-ethoxypyridin-2-yl)-6-methyl-2-oxopyridine-3-carboxamide]",,,100 to 300 nM
"COc1cc2nccc(Oc3ccc(NC(=O)c4c5n(c(C)c(-c6ccoc6)c4=O)CCOC5)cc3)c2nc1OC [Compound 311, N-[4-[(6,7-Dimethoxy-1,5-naphthyridin-4-yl)oxy]phenyl]-7-(furan-3-yl)-6-methyl-8-oxo-3,4-dihydro-1H-pyrido[2,1-c][1,4]oxazine-9-carboxamide]",≤ 100 nM,,≤ 100 nM
"COc1cc2nccc(Oc3ccc(NC(=O)c4c5n(c(C)c(-c6cc(C)cs6)c4=O)CCOC5)cc3)c2nc1OC [Compound 313, N-[4-[(6,7-Dimethoxy-1,5-naphthyridin-4-yl)oxy]phenyl]-6-methyl-7-(4-methylthiophen-2-yl)-8-oxo-3,4-dihydro-1H-pyrido[2,1-c][1,4]oxazine-9-carboxamide]",≤ 100 nM,,100 to 300 nM
"COc1cc2nccc(Oc3ccc(NC(=O)c4c5n(c(C)c(-c6cccs6)c4=O)CCOC5)cc3)c2nc1OC [Compound 316, N-[4-[(6,7-Dimethoxy-1,5-naphthyridin-4-yl)oxy]phenyl]-6-methyl-8-oxo-7-thiophen-2-yl-3,4-dihydro-1H-pyrido [2,1-c][1,4]oxazine-9-carboxamide]",≤ 100 nM,,≤ 100 nM
"COc1cc2nccc(Oc3ccc(NC(=O)c4c5n(c(C)c(-c6ccco6)c4=O)CCOC5)cc3)c2nc1OC [Compound 315, N-[4-[(6,7-Dimethoxy-1,5-naphthyridin-4-yl)oxy]phenyl]-7-(furan-2-yl)-6-methyl-8-oxo-3,4-dihydro-1H-pyrido[2,1-c][1,4]oxazine-9-carboxamide]",≤ 100 nM,,≤ 100 nM
"COc1cc2nccc(Oc3ccc(NC(=O)c4c5n(c(C)c(-c6ccsc6)c4=O)CCOC5)cc3)c2nc1OC [Compound 312, N-[4-[(6,7-Dimethoxy-1,5-naphthyridin-4-yl)oxy]phenyl]-6-methyl-8-oxo-7-thiophen-3-yl-3,4-dihydro-1H-pyrido [2,1-c][1,4]oxazine-9-carboxamide]",≤ 100 nM,,≤ 100 nM
